Measurements taken from patent US20170030891A1, “BLOOD CONDITION ANALYSIS DEVICE, BLOOD CONDITION ANALYSIS SYSTEM, BLOOD CONDITION ANALYSIS METHOD, AND PROGRAM” (SONY CORPORATION, priority 2014, published 2017).

Experiments:
[1] = test system: platelet factors; assay: time-dependent changes in real part of complex permittivity of blood samples having different CyD concentrations at 10 MHz; type: cell-based
Text: The electrical characteristic measurement device 10 includes a measurement unit that applies a voltage between a pair of electrodes provided in a sample container filled with a blood sample to be evaluated, and measures the electrical characteristics of the blood sample over time at a specific frequency or frequency band. Examples of electrical characteristics measured by the electrical characteristic measurement device 10 include the impedance, conductance, admittance, capacitance, permittivity, conductivity, and phase angle, as well as amounts obtained by converting them into the amounts of electricity. Incidentally, the blood condition analysis system 1 of this embodiment can perform evaluation from at least one kind of these electrical characteristics, but may also utilize two or more kinds of electrical characteristics.
In the measurement step S1, the electrical characteristics of two or more blood samples adjusted from one blood specimen and having different drug types or concentrations are measured over time at a specific frequency or frequency band. At this time, the conditions for the electrical characteristic measurement are not particularly limited, and may be suitably set according to the kind of electrical characteristics and the like within a range where the blood to be evaluated is not deteriorated.
In the analysis step S2, utilizing data of time-dependent changes in the electrical characteristics measured by the electrical characteristic measurement device 10, the influence of the drug or a factor in the blood on the coagulation system or fibrinolysis system of the blood is evaluated by the blood condition analysis device 11. For example, from data of time-dependent changes in the electrical characteristic of each blood sample, parameters conventionally used for the evaluation of the coagulation system or fibrinolysis system of blood are calculated. […]
In addition, for example, in the case where the coagulation system is evaluated, examples of coagulation factors to be evaluated include platelet factors and fibrinogen. […]

[2] = test system: platelets; assay: Example 1: complex permittivity in the process of coagulation of blood with CyD or Pefabloc at various concentrations; type: cell-based; conditions: sample with Pefabloc concentration 0%, FIG. 24; addition of 8 μl of CyD to 180 μl of blood; blood from a healthy individual
Experimental: (§1) Hereinafter, the effects of the present disclosure will be described in detail. In this example, CyD or Pefabloc was added at various concentrations to a blood sample collected from a healthy individual, and changes in the complex permittivity in the process of coagulation were measured.
(§2) As shown in the following Mathematical Formula 1, the clot firmness CF depends on the effective concentration of platelets PLT and the effective concentration of fibrinogen FIB. Incidentally, a, b, and c in the following Mathematical Formula 1 are parameters determined by measurement.
(§3) Here, by applying the analysis method shown in FIG. 8 to the data of a sample having a Pefabloc concentration of 0% shown in FIG. 24, it can be estimated that the CyD concentration at which the contribution of platelets disappears is 3.4 μg/ml (the addition of 8 μl of CyD to 180 μl of blood). As a result, the effective concentration of platelets (142000/μl) can be determined. In a similar manner, the amount of fibrinogen can be determined using the data of a sample having a CyD concentration of 0% shown in FIG. 25.

[3] = molecular target: T1, fibrinogen (Homo sapiens, UniProt P02675+P02679); assay: coagulation amplitude and coagulation time of blood samples vs fibrinogen inhibitor (Pefabloc) concentration; conditions: relation to Pefabloc concentration, FIG. 15A and 15B
T1 construct: from tissue; host or cells: blood sample (donor not described)
Text: Further, by using a fibrinogen inhibitor, such as Pefabloc, as the drug, the influence of fibrinogen can also be evaluated. FIG. 15A is a diagram showing the relation between the fibrinogen inhibitor (Pefabloc) concentration and the coagulation amplitude, while FIG. 15B is a diagram showing the relation with the coagulation time. […] Thus, utilizing this characteristic, the influence of fibrinogen can be evaluated, or the amount of fibrinogen can be estimated.

[4] = molecular target: T1, fibrinogen; assay: Example 1: complex permittivity in the process of coagulation of blood with CyD or Pefabloc at various concentrations; conditions: from PFG concentration dependence at CyD concentration 0, FIG. 25; blood from a healthy individual
Experimental: as §1, §2, §3
Then, the effective concentration of platelets PLT can be estimated from data of CyD concentration dependence. In addition, the effective concentration of fibrinogen FIB can be estimated from data of PFG concentration dependence. […]

[5] = test system: fibrinolysis system of the blood; assay: complex permittivity at 10 MHz of blood samples with fibrinolysis system promotor (tPA) and inhibitor (aprotinin); conditions: aprotinin added to blood with tPA, 10 MHz, FIG. 10
Experimental: In addition, for example, in the case where the fibrinolysis system is evaluated, examples of coagulation factors to be evaluated include plasminogen and plasmin. In that case, as a drug to be added to the blood sample, an activator or inhibitor of plasminogen or plasmin is usable. FIG. 9 is a diagram showing time-dependent changes in the real part (∈′) of the complex permittivity at 10 MHz of blood samples having different fibrinolysis system promotor (tPA) and fibrinolysis system inhibitor (aprotinin) concentrations.
For the evaluation of the fibrinolysis-system blood, for example, a value obtained by dividing the amplitude after 30 minutes from the time B shown in FIGS. 2A-2B by the amplitude at the time B (LI30: the source of clot firmness after a predetermined period of time from the maximum firmness accompanying fibrinolysis) can be used as an evaluation parameter.

[6] = test system: blood coagulation; assay: complex permittivity at 10 MHz of blood samples having different heparin concentrations; conditions: relation to heparin concentration, FIG. 12
Experimental: The blood condition analysis method of this embodiment is not limited to the evaluation criteria and evaluation methods described above. For example, it is also possible that heparin is used as the drug, and the suppressing effect of heparin on blood coagulation is evaluated. FIG. 11 is a diagram showing time-dependent changes in the real part (∈′) of the complex permittivity of blood samples having different heparin concentrations at 10 MHz, and FIG. 12 is a diagram showing the relation between the clotting time determined from the values of ∈′ at 10 MHz shown in FIG. 11 and the heparin concentration. In addition, FIG. 13 is a diagram showing the coagulation curves of blood samples having different heparin concentrations, and FIG. 14 is a diagram showing the relation between the heparin concentration and the difference in clotting time.

T1 sequence (P02671 20-629 partner limits assumed): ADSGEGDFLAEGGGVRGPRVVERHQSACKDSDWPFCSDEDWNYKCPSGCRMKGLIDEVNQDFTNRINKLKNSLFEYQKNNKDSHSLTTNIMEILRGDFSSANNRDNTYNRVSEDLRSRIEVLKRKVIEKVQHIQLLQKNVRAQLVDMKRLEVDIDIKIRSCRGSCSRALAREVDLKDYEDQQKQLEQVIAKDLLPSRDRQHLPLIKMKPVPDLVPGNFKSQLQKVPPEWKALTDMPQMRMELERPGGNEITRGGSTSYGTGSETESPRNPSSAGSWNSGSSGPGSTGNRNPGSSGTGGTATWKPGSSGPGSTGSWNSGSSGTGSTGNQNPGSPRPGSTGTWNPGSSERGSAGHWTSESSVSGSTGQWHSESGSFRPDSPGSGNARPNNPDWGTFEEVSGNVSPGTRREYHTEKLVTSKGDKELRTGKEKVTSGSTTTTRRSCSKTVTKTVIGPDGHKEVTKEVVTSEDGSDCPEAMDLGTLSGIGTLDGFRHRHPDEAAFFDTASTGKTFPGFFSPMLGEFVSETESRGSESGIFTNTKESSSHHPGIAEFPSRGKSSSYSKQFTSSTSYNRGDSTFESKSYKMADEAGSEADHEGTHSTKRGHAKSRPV
T1 sequence (P02675 31-491): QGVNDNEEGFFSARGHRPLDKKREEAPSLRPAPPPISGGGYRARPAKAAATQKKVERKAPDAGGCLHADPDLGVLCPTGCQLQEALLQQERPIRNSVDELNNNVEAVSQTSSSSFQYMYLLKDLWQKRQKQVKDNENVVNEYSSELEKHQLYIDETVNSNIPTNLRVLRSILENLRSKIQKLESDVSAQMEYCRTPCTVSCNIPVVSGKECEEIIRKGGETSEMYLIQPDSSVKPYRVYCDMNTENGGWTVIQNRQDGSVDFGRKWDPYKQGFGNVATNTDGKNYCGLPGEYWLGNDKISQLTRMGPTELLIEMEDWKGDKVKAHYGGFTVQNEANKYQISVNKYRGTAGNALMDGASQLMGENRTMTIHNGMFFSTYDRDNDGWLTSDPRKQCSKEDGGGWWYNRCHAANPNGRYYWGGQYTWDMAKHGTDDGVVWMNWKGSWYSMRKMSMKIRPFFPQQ
T1 sequence (P02679 27-433 limits assumed): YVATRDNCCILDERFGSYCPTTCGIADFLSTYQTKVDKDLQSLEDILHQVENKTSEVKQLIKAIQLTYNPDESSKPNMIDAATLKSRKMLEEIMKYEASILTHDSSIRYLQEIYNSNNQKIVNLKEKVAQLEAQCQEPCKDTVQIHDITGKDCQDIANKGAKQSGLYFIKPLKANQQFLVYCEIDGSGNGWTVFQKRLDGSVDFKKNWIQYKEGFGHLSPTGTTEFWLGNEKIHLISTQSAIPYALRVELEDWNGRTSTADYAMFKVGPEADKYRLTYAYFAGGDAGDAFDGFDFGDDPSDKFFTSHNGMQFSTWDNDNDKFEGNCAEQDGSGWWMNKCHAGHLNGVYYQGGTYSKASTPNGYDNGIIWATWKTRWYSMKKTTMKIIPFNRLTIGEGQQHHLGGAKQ

C=C1[C@@H](C)[C@H]2[C@H](Cc3ccccc3)NC(=O)[C@]23[C@H](OC(C)=O)/C=C/[C@@](C)(O)C(=O)[C@@H](C)C/C=C/[C@H]3[C@@H]1O [CyD, cytochalasin D]
amount of CyD for inhibiting the platelet factors ([1]; blood sample of FIG. 8, number of platelets 136500 per 1 μl): 25 ng per platelet
minimum drug dose to completely suppress the action of platelet factors ([1]; from coagulation rate vs CyD concentration (FIG. 8), agrees with coagulation rate of blood sample containing excess CyD): 3.3 µg/mL
coagulation amplitude and coagulation rate determined from the real part of the complex permittivity ([1]; relation to CyD concentration, FIG. 7 and FIG. 8): correlated with the CyD concentration
CyD concentration at which the contribution of platelets disappears [2]: 3.4 µg/mL

H-Gly-Pro-Arg-Pro-OH×AcOH (H-GPRP-OH; also: acetate salt) [Pefabloc, fibrinogen function suppressor]
coagulation amplitude and clotting time [3]: the coagulation amplitude and the clotting time change with an increase in the fibrinogen inhibitor (Pefabloc) concentration
effective concentration of fibrinogen FIB (equivalent PFG) [4]: 1000 µg/mL

aprotinin
LI30 (amplitude after 30 minutes from time B divided by amplitude at time B) [5]: turns back to the value of the control blood sample

heparin
clotting time determined from ∈′ at 10 MHz [6]: the clotting time increases with an increase in the heparin concentration
